Where two headings read alike, the source gives them in different places.
Assays:
[1] = test system: DU 145 Human Prostate Carcinoma Xenografts; details: DU145; for MDS (n) / Complete Response / Partial Response / Stable Disease / Survivors / Toxic Deaths / Mean Score: i.v. qd x 1 (mg/kg: Taxol 24, 1351 107.6, 1393 72.6, 1401 107.6, 1418 107.6, 1424 195.1); for MDS (n) / Complete Response / Partial Response / Stable Disease / Survivors / Toxic Deaths: 5 mice/group, Day 91; for MDS (n): 1.5 g cut-off; for Mean Score: tumor score 1 to 10, group mean
Method: (§1) Other antitumor compounds were similarly formulated. […] The dosing volume was 0.3 ml per 20 g mouse.
Male NCr-nude mice (implanted subcutaneously with 1 mm^3 DU145 prostate carcinoma fragments in the flank) were sorted into treatment groups of five mice each. […] Dosing was initiated on Day 1. The antitumor compounds were given i.v. at an estimated maximum tolerated dose (MTD) appropriate for each agent on a qd x 1 schedule (single administration of compound). […] The vehicle was administered i.v. to control mice in Group 1 on the qd x 1 schedule. The study was terminated on Day 91. Treatment groups are detailed in Table 5.
(§2) The mean days of survival is the number of days after which a neoplasm reached a size of 1.5 g and the animal was euthanized. A complete response is obtained if the tumor is not palpable at the end of the study. A partial response is obtained if the tumor shrinks to a size smaller than its size on Day 1 of the study. […]

[2] = test system: A375 Human Melanoma Xenografts; details: for MDS (n) / Complete Response / Partial Response / Stable Disease / Survivors / Toxic Deaths / Mean Score / survival extension compared to Group 1 controls: A375; for MDS (n) / Complete Response / Partial Response / Stable Disease / Survivors / Toxic Deaths / Mean Score: i.v. qd x 1 (mg/kg: Taxol 24, 1351 107.6, 1393 72.6, 1401 107.6, 1418 107.6, 1424 195.1, Taxotere 70); for MDS (n): 2.0 g cut-off; for MDS (n) / Complete Response / Partial Response / Stable Disease / Survivors / Toxic Deaths: Day 60; for Mean Score: tumor score 1 to 10, group mean; for survival extension compared to Group 1 controls: i.v. qd x 1 (mg/kg: Taxol 24, 1393 72.6, 1418 107.6, Taxotere 70)
Method: as §1
Female NCr-nude mice (implanted subcutaneously with 1 mm^3 A375 melanoma in the flank) were sorted into treatment groups of six mice each, except for the Taxotere group having seven mice each. […] Dosing was initiated on Day 1. The antitumor compounds were given i.v. at an estimated maximum tolerated dose (MTD) appropriate for each agent on a qd x 1 schedule (single administration of compound). […] Taxotere was given i.v. on a qd x 1 schedule at a dose of 70 mg/kg. The vehicle was administered i.v. to control mice in Group 1 on the qd x 1 schedule. Treatment groups are detailed in Table 9. The study was terminated on Day 60.
as §2, with “The results are summarized in Table 10 and include mean days of survival (MDS), number of toxic deaths, number of survivors, number of complete or partial responses, and number with stable disease. The” for “The”, “tumor” for “neoplasm”, “2.0” for “1.5”

[3] = test system: Panc-1 Human Pancreatic Carcinoma Xenografts; details: for mean group weight losses / tolerability: mouse, in vivo
Method: (§3) Other antitumor compounds were similarly formulated. […] The dosing volume was 0.3 mL per 20 g mouse.
Female NCr-nude mice (6-8 weeks of age, implanted subcutaneously with 1 mm^3 Panc-1 pancreatic carcinoma fragments in the flank) were sorted into treatment groups of six mice each. […] Dosing was initiated on Day 1. The antitumor compounds were given i.v. at an estimated maximum tolerated dose (MTD) appropriate for each agent on a qd x 1 schedule (single administration of compound). […] Taxotere was given i.v. at a dose of 70 mg/kg on a qd x 1 schedule. The vehicle was given i.v. to control mice in Group 1 in each test on Day 1 (qd x 1) schedule. Treatment groups are detailed in Table 12. The study was terminated on Day 63.
The mean days of survival is the number of days after which a neoplasm reached a size of 1.5 g and the animal was euthanized. A complete response is obtained if the tumor is not palpable at the end of the study. A partial response is obtained if the tumor shrinks to a size smaller than its size on Day 1 of the study.

[4] = test system: VM46 Human Colon Carcinoma Xenografts; details: for MDS (n): days until tumor reached 1.5 g; for maximal mean group weight losses / tolerability: mouse, in vivo, iv
Method: as §3
Female NCr-nude mice (6-8 weeks of age, implanted subcutaneously with 1 mm^3 VM46 colon carcinoma fragments in the flank) were sorted into treatment groups of six mice each. […] Dosing was initiated on Day 1. The antitumor compounds were given i.v. at an estimated maximum tolerated dose (MTD) appropriate for each agent on a qd x 1 schedule (single administration of compound). […] Taxotere was given i.v. at a dose of 70 mg/kg on a qd x 1 schedule. The vehicle was given i.v. to control mice in Group 1 in each test on Day 1 (qd x 1) schedule. Treatment groups are detailed in Table 13. The VM46 study ended on Day 64.
as §2, with “The results are summarized in table 14 and include mean days of survival (MDS), number of toxic deaths, number of survivors, number of complete or partial responses, and number with stable disease. The” for “The”

[5] = Panc-1, i.v. qd x 1 (mg/kg: Taxol 24, 1351 75.32, 1393 72.6, 1401 107.6, 1418 107.6, 1424 195.1), 6 mice/group
[6] = i.v. qd x 1 at estimated MTD, 6 mice/group, study end Day 63
[7] = 107.6 mg/kg i.v. qd x 1, 6 mice/group, study end Day 64
[8] = VM46, i.v. qd x 1 at estimated MTD, 6 mice/group
[9] = 70 mg/kg i.v. qd x 1, 6 mice/group, study end Day 64

CCC(=O)O[C@H]1C[C@H]2OC[C@@]2(OC(C)=O)[C@H]2[C@H](OC(=O)c3ccccc3)[C@]3(O)C[C@H](OC(=O)[C@H](O)[C@@H](NC(=O)OC(C)(C)C)c4ccoc4)C(C)=C([C@@H](O)C(=O)[C@]12C)C3(C)C [Compound 1401]
MDS (n) [1]: 72.6 ± 8.7 (3) days | Complete Response [1]: 1 | Partial Response [1]: 0 | Stable Disease [1]: 0 | Survivors [1]: 1 | Toxic Deaths [1]: 1 | Mean Score [1]: 3.6 ± 1.7 | MDS (n) [2]: 22.2 ± 1.1 (6) days | Complete Response [2]: 0 | Partial Response [2]: 0 | Stable Disease [2]: 0 | Survivors [2]: 0 | Toxic Deaths [2]: 0 | Mean Score [2]: 2±0 | Toxic Deaths [3, 5]: no toxic deaths | Complete Response [3, 6]: 0 | Mean Score [3, 6]: 6.8 ± 0.8 | Partial Response [3, 6]: 3 | Stable Disease [3, 6]: 3 | Survivors [3, 6]: 6 | Toxic Deaths [3, 6]: 0 | mean group weight losses ([3]; iv): 3-13% | tolerability ([3]; iv): well-tolerated | Complete Response [4, 7]: 0 | Mean Score [4, 7]: 2.5 ± 1.3 | Partial Response [4, 7]: 1 | Stable Disease [4, 7]: 0 | Survivors [4, 7]: 1 | Toxic Deaths [4, 7]: 1 | MDS (n) [4, 7]: 46.1 ± 5.9 (4) days | Toxic Deaths [4, 8]: not more than one | maximal mean group weight losses [4]: under 12% | tolerability [4]: Acceptable toxicity

CCC(=O)O[C@H]1C[C@H]2OC[C@@]2(OC(C)=O)[C@H]2[C@H](OC(=O)c3ccccc3)[C@]3(O)C[C@H](OC(=O)[C@H](O)[C@@H](NC(=O)OC(C)(C)C)c4cccs4)C(C)=C([C@@H](O)C(=O)[C@]12C)C3(C)C [Compound 1418]
Complete Response [1]: 1 | Partial Response [1]: 2 | Stable Disease [1]: 1 | Survivors [1]: 4 | Toxic Deaths [1]: 0 | Mean Score [1]: 7.2 ± 1.2 | total response rate ([1]; i.v. qd x 1 at estimated MTD): ≥ 50% | MDS (n) [2]: 34.5 ± 3.1 (3) days | Complete Response [2]: 0 | Partial Response [2]: 1 | Survivors [2]: 2 | Mean Score [2]: 4 ± 1.3 | survival extension compared to Group 1 controls [2]: 140% | Partial Responses ([3]; Panc-1, i.v. qd x 1 (mg/kg: 1393 72.6, 1418 107.6), 6 mice/group, Day 63): 5 | Survivors [3, 6]: 6 | Toxic Deaths [3, 6]: 0 | Complete Response ([3]; iv, 1512 h): 0 | Mean Score ([3]; iv, 1512 h): 8 ± 0.6 | Partial Response ([3]; iv, 1512 h): 5 | Stable Disease ([3]; iv, 1512 h): 1 | mean group weight losses ([3]; iv): 3-13% | Complete Response [4, 7]: 0 | Mean Score [4, 7]: 3.5 ± 0.8 | Partial Response [4, 7]: 0 | Stable Disease [4, 7]: 3 | Survivors [4, 7]: 3 | Toxic Deaths [4, 7]: 0 | MDS (n) [4, 7]: 41.7 ± 3.4 (3) days | maximal mean group weight losses [4]: 3-14%

CC(=O)O[C@@]12CO[C@@H]1C[C@H](O)[C@@]1(C)C(=O)[C@H](O)C3=C(C)[C@@H](OC(=O)[C@H](O)[C@@H](NC(=O)OC(C)(C)C)c4ccccc4)C[C@@](O)([C@@H](OC(=O)c4ccccc4)[C@H]21)C3(C)C [docetaxel, reference compound]
MDS (n) [2]: 21.5 ± 0.5 (7) days | Complete Response [2]: 0 | Partial Response [2]: 0 | Stable Disease [2]: 0 | Survivors [2]: 0 | Toxic Deaths [2]: 0 | Mean Score [2]: 2±0 | survival extension compared to Group 1 controls [2]: 49% | Complete Response [4, 9]: 0 | Mean Score [4, 9]: 2 ± 0 | Partial Response [4, 9]: 0 | Stable Disease [4, 9]: 0 | Survivors [4, 9]: 0 | Toxic Deaths [4, 9]: 0 | MDS (n) [4, 9]: 45.3 ± 3.6 (6) days | MDS ([4]; VM46, i.v. qd x 1 (Taxol 24 mg/kg, Taxotere 70 mg/kg), 6 mice/group, 1.5 g cut-off, Day 64): 45.3 days

CCC(=O)O[C@H]1C[C@H]2OC[C@@]2(OC(C)=O)[C@H]2[C@H](OC(=O)c3ccccc3)[C@]3(O)C[C@H](OC(=O)[C@H](O)[C@H](C=C(C)C)NC(=O)OC(C)(C)C)C(C)=C([C@@H](O)C(=O)[C@]12C)C3(C)C [Compound 1351]
mortality rate ([1]; 1351 107.6 mg/kg i.v. qd x 1): 40% | weight loss in a number of the treated mice prior to their deaths ([1]; 1351 107.6 mg/kg i.v. qd x 1): over 20% | MDS (n) [1]: 62.6 ± 17.5 (2) days | Complete Response [1]: 0 | Partial Response [1]: 1 | Stable Disease [1]: 0 | Survivors [1]: 1 | Mean Score [1]: 2.6 ± 1.5 | Complete Response [2]: 0 | Partial Response [2]: 0 | Stable Disease [2]: 0 | Survivors [2]: 0 | Mean Score [2]: 0±0 | mean group weight losses ([2]; mouse, in vivo, iv): 20-30% | Toxic Deaths [3, 5]: no toxic deaths | Complete Response [3, 6]: 1 | Mean Score [3, 6]: 5.7 ± 1.3 | Partial Response [3, 6]: 1 | Stable Disease [3, 6]: 2 | Survivors [3, 6]: 4 | Toxic Deaths [3, 6]: 0 | MDS (n) ([3]; i.v. qd x 1 at estimated MTD, 6 mice/group, study end Day 63, days until tumor reached 1.5 g): 42.5 ± 10.2 days | mean group weight losses ([3]; iv): 3-13% | tolerability ([3]; iv): well-tolerated | Complete Response [4, 7]: 0 | Mean Score [4, 7]: 4.5 ± 1.4 | Partial Response [4, 7]: 1 | Stable Disease [4, 7]: 2 | Survivors [4, 7]: 3 | Toxic Deaths [4, 7]: 0 | MDS (n) [4, 7]: 43.7 ± 3.4 (3) days | Toxic Deaths [4, 8]: no toxic deaths | maximal mean group weight losses [4]: 3-14% | tolerability [4]: quite well-tolerated
